Experimental data published in ChEMBL document CHEMBL5303304, “EUbOPEN Chemogenomics Library - IncuCyte” (2023).
“And” between values parts separate entries of the source, which are not always exact repeats. Identical values can stand only once.

Columns and labels:
Format in all cases: toxicity, cell-based
[1] = system: U2OS; assay: Incucyte cell viability with U2OS; details: human, 10 µM, compound concentration 10 uM
[2] = system: Fibroblast; assay: Incucyte cell viability with human fibroblast; details: 10 µM, compound concentration 10 uM
[3] = system: HEK-293T; assay: Incucyte cell viability with HEK293T; details: human, 10 µM, compound concentration 10 uM
Note: unitless GR value; below 1 slowed growth and below 0 cell loss.

Compound | Growth Rate ([1]; 0 h, replicate number 1) | Growth Rate ([1]; 12 h, replicate number 1) | Growth Rate ([1]; 12 h, replicate number 2) | Growth Rate ([1]; 18 h, replicate number 1) | Growth Rate ([1]; 18 h, replicate number 2) | Growth Rate ([1]; 24 h, replicate number 1) | Growth Rate ([2]; 0 h, replicate number 2) | Growth Rate ([2]; 6 h, replicate number 1) | Growth Rate ([3]; 0 h, replicate number 1) | Growth Rate ([3]; 6 h, replicate number 2) | Growth Rate ([3]; 12 h, replicate number 2) | Growth Rate ([3]; 18 h, replicate number 2) | Growth Rate ([3]; 24 h, replicate number 2) | Growth Rate ([2]; 18 h, replicate number 1) | Growth Rate ([2]; 24 h, replicate number 2) | Growth Rate ([3]; 6 h, replicate number 1) | Growth Rate ([3]; 12 h, replicate number 1) | Growth Rate ([3]; 18 h, replicate number 1) | Growth Rate ([3]; 24 h, replicate number 1) | Growth Rate ([1]; 0 h, replicate number 2) | further results
Cl.Cl.c1ccc2c(-c3cnn4cc(-c5ccc(N6CCNCC6)cc5)cnc34)ccnc2c1 | -0.92 | -0.48 | -0.46 | -0.35 | -0.37 | -0.32 | -0.67 | -0.76 | -0.16 | -0.92 | -0.66 | -0.48 | -0.38 | – | – | – | – | – | – | – | Growth Rate ([1]; 6 h, replicate number 1): -0.9; Growth Rate ([1]; 6 h, replicate number 2): -0.64; Growth Rate ([2]; 12 h, replicate number 1): -1
CC(C)(C)c1ccc(NC(=O)N2CCN(c3ncccc3Cl)CC2)cc1 | – | 0.89 | – | 0.88 | – | 0.99 | -0.81 | 0.2 | – | -0.47 | 0.06 | 0.09 | 0.17 | 0.84 | 0.87 | -0.72 | -0.41 | -0.12 | -0.21 | – | –
CNC(=O)c1c(F)cccc1Nc1nc(Nc2cc3c(cc2OC)CCN3C(=O)CN(C)C)nc2[nH]ccc12 | -0.99 | 0.02 | 0.29 | -0.42 | -0.11 | -0.45 | – | 0.23 | -1 | – | 0.75 | -0.03 | -0.14 | -0.23 | -0.6 | – | – | – | – | -1 | Growth Rate ([1]; 24 h, replicate number 2): -0.14; Growth Rate ([2]; 0 h, replicate number 1): -0.92; Growth Rate ([2]; 6 h, replicate number 2): -0.71; Growth Rate ([2]; 12 h, replicate number 1): 0.04; Growth Rate ([2]; 12 h, replicate number 2): -0.65; Growth Rate ([2]; 18 h, replicate number 2): -0.62; Growth Rate ([2]; 24 h, replicate number 1): -0.23; Growth Rate ([3]; 0 h, replicate number 2): 0.35
O=S(=O)(Nc1nncs1)c1cc(Cl)c(Oc2ccc(C(F)(F)F)cc2-c2ccnn2C2CNC2)cc1F | 0.61 | – | – | 0.95 | 1 | 0.86 | – | – | – | – | – | – | – | 0.41 | – | 0.2 | – | – | – | -0.77 | Growth Rate ([1]; 6 h, replicate number 2): 0.95; Growth Rate ([1]; 24 h, replicate number 2): 0.98
CCn1c(-c2ccncc2)cc2c1CCNC2=O | -0.56 | 0.78 | 0.44 | 0.29 | 0.12 | 0.13 | – | -0.99 | -0.57 | -0.3 | -0.55 | -0.47 | -0.39 | – | – | 0.22 | -0.65 | -0.57 | -0.56 | 0.39 | Growth Rate ([1]; 24 h, replicate number 2): 0.08; Growth Rate ([2]; 0 h, replicate number 1): -0.22; Growth Rate ([3]; 0 h, replicate number 2): -0.66
COc1cc(OC)cc(-c2cc3cnc(N)nc3nc2NC(=O)NC(C)(C)C)c1 | – | 0.8 | – | 0.67 and 0.9 | – | 0.91 | 0.79 | -0.05 | – | – | – | 0.36 and 0.62 | 0.38 and 0.68 | – | 0.45 | 0.92 | 0.8 | 0.71 | 0.65 and 0.98 | 0.36 and 0.2 | Growth Rate ([1]; 6 h, replicate number 1): 0.92; Growth Rate ([2]; 6 h, replicate number 2): 0.11; Growth Rate ([2]; 18 h, replicate number 2): 0.45; Growth Rate ([3]; 0 h, replicate number 2): -0.38
